Data published in patent US11840497B2, “4-(p-quinonyl)-2-hydroxybutanamide derivatives for treatment of mitochondrial diseases” (PTC Therapeutics, Inc., priority 2007, dated 2023).
pEC50: −log10 of the molar value.

What was measured:
Assay type in all cases: cell-based
[1] = tested on: Human dermal fibroblasts from Friedreich's Ataxia patients; experiment: Rescue of BSO-stressed FRDA fibroblasts (Example A); conditions: FRDA fibroblasts GM04078, 1 mM BSO, read-out: protection against FRDA, EC50
Experimental: Test samples, 4 reference compounds (idebenone, decylubiquinone, Trolox and α-tocopherol acetate), and solvent controls were tested for their ability to rescue FRDA fibroblasts stressed by addition of L-buthionine (S,R)-sulfoximine (BSO), as described in Jauslin et al., Hum. Mol. Genet. […] Mol. Genet. […] This specific BSO-mediated cell death can be prevented by administration of antioxidants or molecules involved in the antioxidant pathway, such as α-tocopherol, selenium, or small molecule glutathione peroxidase mimetics. However, antioxidants differ in their potency, i.e. the concentration at which they are able to rescue BSO-stressed FRDA fibroblasts.
Fetal Calf Serum was obtained from PAA Laboratories. Basic fibroblast growth factor and epidermal growth factor were purchased from PeproTech. Penicillin-streptomycin-glutamine mix, L-buthionine (S,R)-sulfoximine, (+)-α-tocopherol acetate, decylubiquinone, and insulin from bovine pancreas were purchased from Sigma. Trolox (6-Hydroxy-2,5,7,8-tetramethylchroman-2-carboxylic acid) was obtained from Fluka. Idebenone was obtained from Chemo Iberica. Calcein AM was purchased from Molecular Probes. Cell culture medium was made by combining 125 ml M199 EBS, 50 ml Fetal Calf Serum, 100 U/ml penicillin, 100 μg/ml streptomycin, 2 mM glutamine, 10 μg/ml insulin, 10 ng/ml EGF, and 10 ng/ml bFGF; MEM EBS was added to make the volume up to 500 ml. […] During the course of the experiments, this solution was stored at +4° C. The cells were obtained from the Coriell Cell Repositories (Camden, NJ; repository number GM04078) and grown in 10 cm tissue culture plates. Every third day, they were split at a 1:3 ratio.
The test samples were supplied in 1.5 ml glass vials. […] Once dissolved, they were stored at −20° C. Reference antioxidants (idebenone, decylubiquinone, α-tocopherol acetate and trolox) were dissolved in DMSO.
Test samples were screened according to the following protocol: A culture with FRDA fibroblasts was started from a 1 ml vial with approximately 500,000 cells stored in liquid nitrogen. […] Once confluent, fibroblasts were harvested. […] The remaining cells were distributed in 10 cm cell culture plates (500,000 cells/plate) for propagation. The plates were incubated overnight at 37° C. in a atmosphere with 95% humidity and 5% CO2 to allow attachment of the cells to the culture plate.
MTP medium (243 μl) was added to a well of the microtiter plate. […] Serial dilutions from the master solution were made. The period between the single dilution steps was kept as short as possible (generally less than 1 second).
Plates were kept overnight in the cell culture incubator. The next day, 10 μl of a 10 mM BSO solution were added to the wells, resulting in a 1 mM final BSO concentration. Forty-eight hours later, three plates were examined under a phase-contrast microscope to verify that the cells in the 0% control (wells E1-H1) were clearly dead. The medium from all plates was discarded, and the remaining liquid was removed by gently tapping the plate inversed onto a paper towel.
The plates were incubated for 50-70 minutes at room temperature. After that time the PBS was discarded, the plate gently tapped on a paper towel and fluorescence (excitation/emission wavelengths of 485 nm and 525 nm, respectively) was read on a Gemini fluorescence reader. Data was imported into Microsoft Excel (EXCEL is a registered trademark of Microsoft Corporation for a spreadsheet program) and used to calculate the EC50 concentration for each compound.
The compounds were tested three times, i.e., the experiment was performed three times, the passage number of the cells increasing by one with every repetition.
The viability of non-BSO treated fibroblasts was set as 100%, and the viability of the BSO- and compound-treated cells was calculated as relative to this value.

[2] = tested on: human dermal fibroblasts from Huntington's patients; experiment: Rescue of BSO-stressed fibroblasts from Huntington's patients (Example B); conditions: Fibroblast, Huntington's fibroblasts GM 04281, screen as Example A, read-out: protection against Hungtington's, EC50
Experimental: The compounds were tested for their ability to rescue human dermal fibroblasts from Huntington's patients from oxidative stress.

[3] = tested on: human dermal fibroblasts from LHON patients; experiment: Rescue of BSO-stressed fibroblasts from LHON patients (Example C); conditions: Fibroblast, LHON fibroblasts GM03858, screen as Example A, read-out: protection against LHON, EC50
Experimental: The compounds were tested for their ability to rescue human dermal fibroblasts from LHON patients from oxidative stress.

[4] = tested on: human dermal fibroblasts from Parkinson's Disease patients; experiment: Rescue of BSO-stressed fibroblasts from Parkinson's Disease patients (Example D); conditions: Fibroblast, PD fibroblasts AG20439, screen as Example A, read-out: protection against PD, EC50
Experimental: The compounds were tested for their ability to rescue human dermal fibroblasts from Parkinson's Disease patients from oxidative stress.

[5] = tested on: human dermal fibroblasts from CoQ10 deficient patients; experiment: Rescue of stressed fibroblasts from CoQ10 deficient patients (Example E); conditions: Fibroblast, fibroblasts harboring a CoQ2 mutation, screen similar to Example A, read-out: protection against CoQ10 deficiency, EC50
Experimental: Compounds of the invention were tested using a screen similar to the one described in Example A, but substituting FRDA cells with cells obtained from CoQ10 deficient patients harboring a CoQ2 mutation.

Measured: pEC50

CC1=C(C)C(=O)C(CCC(C)(O)C(=O)N2CCN(Cc3ccccc3)CC2)=C(C)C1=O (stereo not shown) [Example 15, 2-(4-(4-Benzylpiperazin-1-yl)-3-hydroxy-3-methyl-4-oxobutyl)-3,5,6-trimethylcyclohexa-2,5-diene-1,4-dione]
not listed: [5]
> 7.00: all other assays above

CC1=C(C)C(=O)C(CCC(C)(O)C(=O)NCCN(C)C)=C(C)C1=O (stereo not shown) [Example 37, N-(2-(Dimethylamino)ethyl)-2-hydroxy-2-methyl-4-(2,4,5-trimethyl-3,6-dioxocyclohexa-1,4-dienyl)butanamide]
> 7.00: all assays above

CC1=C(C)C(=O)C(CC[C@](C)(O)C(=O)NCCO)=C(C)C1=O [Example 28, (S)-2-hydroxy-N-(2-hydroxyethyl)-2-methyl-4-(2,4,5-trimethyl-3,6-dioxocyclohexa-1,4-dienyl)butanamide]
> 7.00: [1] | [2] | [4]

CC1=C(C)C(=O)C(CCC(C)(O)C(=O)NCCO)=C(C)C1=O (stereo not shown) [Example 20, 2-Hydroxy-N-(2-hydroxyethyl)-2-methyl-4-(2,4,5-trimethyl-3,6-dioxocyclohexa-1,4-dienyl)butanamide]
> 7.00: all assays above

CC1=C(C)C(=O)C(CCC(C)(O)C(=O)NCCCn2ccnc2)=C(C)C1=O (stereo not shown) [Example 23, N-(3-(1H-imidazol-1-yl)propyl)-2-hydroxy-2-methyl-4-(2,4,5-trimethyl-3,6-dioxocyclohexa-1,4-dienyl)butanamide]
> 7.00: [1] | [2] | [4]

CC1=C(C)C(=O)C(CCC(C)(O)C(=O)NCCOCCO)=C(C)C1=O (stereo not shown) [Example 25, 2-Hydroxy-N-(2-(2-hydroxyethoxy)ethyl)-2-methyl-4-(2,4,5-trimethyl-3,6-dioxocyclohexa-1,4-dienyl)butanamide]
not listed: [5]
> 7.00: all other assays above

CC1=C(C)C(=O)C(CCC(C)(O)C(=O)NCCc2ccc(O)cc2)=C(C)C1=O (stereo not shown) [Example 36, N-(4-Hydroxyphenethyl)-2-hydroxy-2-methyl-4-(2,4,5-trimethyl-3,6-dioxocyclohexa-1,4-dienyl)butanamide]
not listed: [5]
> 7.00: all other assays above
